Patent publication US5061794A, “Cephalosporin derivatives, and antibacterial agents” (priority 1986, dated 1991)
In brackets after ≈: the same amount, converted by molar mass. Like-named read-outs stand apart in the source and are kept apart here.

Tests used:
[1] = system: E. coli CSH(RE45); experiment: microbe, parasite or virus in culture; format: cell-based; details: 10^6 CFU/ml; for MIC: Escherichia coli, 16 h, read-out: Minimum Inhibitory Concentration (MIC), *E. coli CSH(RE45), lactamase-producing strain
Summary of the method: (§1)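 Agar plate dilution on Mueller Hinton agar containing graded compound levels, inoculated at 10^6 CFU/ml from overnight Mueller Hinton broth cultures. MIC (μg/ml) read after 16 h at 37°C.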

[2] = system: E. coli CSH2 (RK1); experiment: microbe, parasite or virus in culture; format: cell-based; details: 10^6 CFU/ml; for MIC: Escherichia coli, 16 h, read-out: Minimum Inhibitory Concentration (MIC), *E. coli CSH2 (RK1), lactamase-producing strain
Summary of the method: as §1

[3] = system: E. cloacae 963; experiment: in vitro antibacterial activity, agar plate dilution method (MIC); format: cell-based; details: 10^6 CFU/ml
Summary of the method: as §1

[4] = system: E. cloacae Nek 39; experiment: as above; format: cell-based; details: 10^6 CFU/ml; for MIC: Enterobacter cloacae, NEK39, 16 h
Summary of the method: as §1

[5] = system: E. coli GN5482; experiment: as above; format: cell-based; details: Escherichia coli, GN5482, 16 h
Summary of the method: as §1

[6] = system: E. coli NIHJ JC2; experiment: as above; format: cell-based; details: for MIC: Escherichia coli, NIHJJC2, 16 h, read-out: Minimum Inhibitory Concentration (MIC), E. coli NIHJ JC2, 10^6 CFU/ml, 37° C.
Summary of the method: as §1

[7] = system: K. oxytoca GN10650; experiment: as above; format: cell-based; details: 10^6 CFU/ml; for MIC: Klebsiella oxytoca, GN10650, 16 h, read-out: Minimum Inhibitory Concentration (MIC), *K. oxytoca GN10650, lactamase-producing strain
Summary of the method: as §1

[8] = system: K. pneumoniae No. 42; experiment: as above; format: cell-based; details: 10^6 CFU/ml; for MIC: Klebsiella pneumoniae
Summary of the method: as §1

[9] = system: K. pneumoniae PCI-602; experiment: as above; format: cell-based; details: Klebsiella pneumoniae, PCI602, 16 h, read-out: Minimum Inhibitory Concentration (MIC), K. pneumoniae PCI-602; 10^6 CFU/ml
Summary of the method: as §1

[10] = system: M. morganii GN5407; experiment: as above; format: cell-based; details: 10^6 CFU/ml; for MIC: Morganella morganii, GN5407, 16 h, read-out: Minimum Inhibitory Concentration (MIC), *M. morganii GN5407, lactamase-producing strain
Summary of the method: as §1

[11] = system: P. vulgaris HX-19; experiment: as above; format: cell-based; details: P. vulgaris HX-19, 10^6 CFU/ml; for MIC: Proteus vulgaris, HX19, 16 h, read-out: Minimum Inhibitory Concentration (MIC)
Summary of the method: as §1

[12] = system: P. vulgaris No. 33; experiment: as above; format: cell-based; details: 10^6 CFU/ml; for MIC: Proteus vulgaris, NO.33, 16 h, read-out: Minimum Inhibitory Concentration (MIC), *P. vulgaris No. 33, lactamase-producing strain
Summary of the method: as §1

[13] = system: S. aureus 209P NIHJ-JC1; experiment: as above; format: cell-based; details: Staphylococcus aureus, 16 h, 10^6 CFU/ml, 37° C., 16 hours
Summary of the method: as §1

[14] = system: S. marcescens IAM 1184; experiment: as above; format: cell-based; details: Serratia marcescens, IAM1184, 16 h, read-out: Minimum Inhibitory Concentration (MIC)
Summary of the method: as §1

[15] = system: S. marcescens No. 16-2; experiment: as above; format: cell-based; details: 10^6 CFU/ml; for MIC: Serratia marcescens, NO.162, 16 h
Summary of the method: as §1

[16] = system: Ps. aeruginosa AK 109; experiment: as above; format: cell-based, Pseudomonas aeruginosa; details: Pseudomonas aeruginosa, AK109, 16 h
Summary of the method: as §1

[17] = system: Ps. aeruginosa AKR17; experiment: as above; format: cell-based, Pseudomonas aeruginosa; details: Pseudomonas aeruginosa, read-out: Minimum Inhibitory Concentration (MIC)
Summary of the method: as §1

[18] = system: Ps. aeruginosa IF03445; experiment: as above; format: cell-based, Pseudomonas aeruginosa; details: 10^6 CFU/ml; for MIC: Pseudomonas aeruginosa
Summary of the method: as §1

[19] = system: Ps. cepacia 23; experiment: as above; format: cell-based, Pseudomonas cepacia; details: read-out: Minimum Inhibitory Concentration (MIC)
Summary of the method: as §1

[20] = system: A. calcoaceticus No. 4; experiment: as above; format: cell-based, Acinetobacter calcoaceticus; details: 10^6 CFU/ml; for MIC: Acinetobacter calcoaceticus, NO.4, 16 h
Summary of the method: as §1

[21] = Enterobacter cloacae, 16 h, E. cloacae 963, read-out: Minimum Inhibitory Concentration (MIC)
[22] = read-out: Minimum Inhibitory Concentration (MIC), *E. cloacae Nek 39, lactamase-producing strain
[23] = read-out: Minimum Inhibitory Concentration (MIC)
[24] = NO.42, 16 h, read-out: Minimum Inhibitory Concentration (MIC), *K. pneumoniae No. 42, lactamase-producing strain
[25] = read-out: Minimum Inhibitory Concentration (MIC), S. aureus 209P NIHJ-JC1
[26] = S. marcescens IAM 1184, 10^6 CFU/ml
[27] = read-out: Minimum Inhibitory Concentration (MIC), *S. marcescens No. 16-2, lactamase-producing strain
[28] = 16 h, Ps. aeruginosa AKR17, 10^6 CFU/ml
[29] = IF03445, 16 h, read-out: Minimum Inhibitory Concentration (MIC), Ps. aeruginosa IF03445
[30] = Burkholderia cepacia, 16 h, Ps. cepacia 23, 10^6 CFU/ml
[31] = read-out: Minimum Inhibitory Concentration (MIC), A. calcoaceticus No. 4
[32] = Enterobacter cloacae, 963, 16 h, read-out: Minimum Inhibitory Concentration (MIC), E. cloacae 963
[33] = S. aureus 209P NIHJ-JC1, read-out: Minimum Inhibitory Concentration (MIC)
[34] = read-out: Minimum Inhibitory Concentration (MIC), *E. coli GN5482, lactamase-producing strain, 10^6 CFU/ml
[35] = Ps. aeruginosa AK 109, 10^6 CFU/ml, read-out: Minimum Inhibitory Concentration (MIC)
[36] = A. calcoaceticus No. 4, read-out: Minimum Inhibitory Concentration (MIC)

Structure (SMILES)	MIC [1]	MIC [2]	MIC [3, 21]	MIC [4, 22]	MIC [5, 23]	MIC [6]	MIC [7]	MIC [8, 24]	MIC [9]	MIC [10]	MIC [11]	MIC [12]	MIC [13, 25]	MIC [14, 26]	MIC [15, 27]	MIC [16, 23]	MIC [17, 28]	MIC [18, 29]	MIC [19, 30]	MIC [3, 32]	also measured
CO/N=C(\C(=O)N[C@@H]1C(=O)N2C(C(=O)O)=C(CSc3nnc(-c4ccc(O)c(O)c4)o3)CS[C@H]12)c1csc(N)n1 [Ex. 1, sodium 7β-[2-(2-aminothiazol-4-yl)-2-methoxyiminoacetamido]-3-[5-(3, 4dihydroxyphenyl)-1,3,4-oxadiazol-2-yl]thiomethyl-3-cephem-4-carboxylate]	0.78 µg/mL	< 0.006 µg/mL	< 0.006 µg/mL	0.05 µg/mL	0.39 µg/mL	0.05 µg/mL	0.39 µg/mL	0.025 µg/mL	< 0.006 µg/mL	0.0125 µg/mL	< 0.006 µg/mL	0.0125 µg/mL	1.56 µg/mL	< 0.006 µg/mL	0.78 µg/mL	0.39 µg/mL	> 100 µg/mL	0.78 µg/mL	0.1 µg/mL	–	MIC [20, 31]: 0.1 µg/mL
CC(=O)Oc1ccc(-c2nc(SCC3=C(C(=O)O)N4C(=O)C(NC(=O)C(=NOC(C(=O)O)c5ccccc5)c5csc(N)n5)C4SC3)sc2CC(=O)O)cc1OC(C)=O (single isomer, unassigned) [Example 61 DA]	–	–	–	–	0.39 µg/mL (≈ 0.442 µM)	–	–	–	< 0.006 µg/mL	–	–	–	–	0.05 µg/mL (≈ 0.0566 µM)	–	0.39 µg/mL (≈ 0.442 µM)	–	–	< 0.006 µg/mL	0.39 µg/mL (≈ 0.442 µM)	Minimum Inhibitory Concentration (MIC) ([1]; *E. coli CSH(RE45), lactamase-producing strain): 3.12 µg/mL; Minimum Inhibitory Concentration (MIC) ([2]; *E. coli CSH2 (RK1), lactamase-producing strain): 0.0125 µg/mL; Minimum Inhibitory Concentration (MIC) ([4]; *E. cloacae Nek 39, lactamase-producing strain): 0.1 µg/mL; Minimum Inhibitory Concentration (MIC) ([6]; E. coli NIHJ JC2, 10^6 CFU/ml, 37° C., 16 hours): 0.78 µg/mL; Minimum Inhibitory Concentration (MIC) ([7]; *K. oxytoca GN10650, lactamase-producing strain): 0.05 µg/mL; Minimum Inhibitory Concentration (MIC) ([8]; *K. pneumoniae No. 42, lactamase-producing strain): 0.1 µg/mL; Minimum Inhibitory Concentration (MIC) ([10]; *M. morganii GN5407, lactamase-producing strain): 0.05 µg/mL; Minimum Inhibitory Concentration (MIC) [11]: < 0.006 µg/mL; Minimum Inhibitory Concentration (MIC) ([12]; *P. vulgaris No. 33, lactamase-producing strain): 0.025 µg/mL; MIC [13, 33]: 25 µg/mL (≈ 28.3 µM); Minimum Inhibitory Concentration (MIC) ([15]; *S. marcescens No. 16-2, lactamase-producing strain): 0.78 µg/mL; MIC ([17]; AKR17, 16 h): 0.39 µg/mL (≈ 0.442 µM); Minimum Inhibitory Concentration (MIC) ([18]; Ps. aeruginosa IF03445): 0.39 µg/mL; Minimum Inhibitory Concentration (MIC) ([20]; A. calcoaceticus No. 4): 0.1 µg/mL
CC(C)(O/N=C(\C(=O)N[C@@H]1C(=O)N2C(C(=O)O)=C(CSc3nc(-c4ccccc4)c(CC(=O)O)s3)CS[C@H]12)c1csc(N)n1)C(=O)O [compound 16, trisodium 7β-[2-(2-aminothiazol-4-yl)-2-(1-carboxylate-1-methylethoxyimino)acetamido]-3-(5-carboxylatemethyl-4-phenylthiazol-2-yl)thio-methyl-3-cephem-4-carboxylate, reference compound]	3.12 µg/mL	6.25 µg/mL	–	–	–	6.25 µg/mL	3.12 µg/mL	3.12 µg/mL	1.56 µg/mL	1.56 µg/mL	< 0.006 µg/mL	0.2 µg/mL	–	–	–	–	> 100 µg/mL	–	–	6.25 µg/mL	MIC ([4]; *E. cloacae Nek 39, lactamase-producing strain, read-out: Minimum Inhibitory Concentration (MIC)): 25 µg/mL; MIC [5, 34]: 6.25 µg/mL; MIC [13, 33]: 50 µg/mL; MIC [14]: 1.56 µg/mL; MIC ([15]; *S. marcescens No. 16-2, lactamase-producing strain, read-out: Minimum Inhibitory Concentration (MIC)): 50 µg/mL; MIC [16, 35]: 50 µg/mL; MIC ([18]; 16 h, Ps. aeruginosa IF03445, read-out: Minimum Inhibitory Concentration (MIC)): 50 µg/mL; MIC ([19]; Burkholderia cepacia, 23, 16 h): 6.25 µg/mL; MIC [20, 36]: > 100 µg/mL
Nc1nc(/C(=N/OCc2ccccc2CC(=O)O)C(=O)N[C@@H]2C(=O)N3C(C(=O)O)=C(CSc4nnc(-c5ccc(O)c(O)c5)o4)CS[C@H]23)cs1 [Ex. 23]	< 0.006 µg/mL	< 0.006 µg/mL	–	0.1 µg/mL (≈ 0.135 µM)	–	0.2 µg/mL (≈ 0.27 µM)	0.1 µg/mL (≈ 0.135 µM)	–	< 0.006 µg/mL	0.025 µg/mL (≈ 0.0338 µM)	< 0.006 µg/mL	0.0125 µg/mL (≈ 0.0169 µM)	6.25 µg/mL (≈ 8.45 µM)	0.025 µg/mL (≈ 0.0338 µM)	1.56 µg/mL (≈ 2.11 µM)	–	–	0.39 µg/mL (≈ 0.527 µM)	< 0.006 µg/mL	0.025 µg/mL (≈ 0.0338 µM)	MIC [5, 34]: 0.78 µg/mL (≈ 1.05 µM); MIC ([8]; 16 h, *K. pneumoniae No. 42, lactamase-producing strain, read-out: Minimum Inhibitory Concentration (MIC)): < 0.006 µg/mL; MIC [16, 35]: 0.1 µg/mL (≈ 0.135 µM); MIC ([17]; AKR17, 16 h): 12.5 µg/mL (≈ 16.9 µM); MIC [20, 31]: 0.1 µg/mL (≈ 0.135 µM)
C#CCON=C(C(=O)NC1C(=O)N2C(C(=O)O)=C(CSc3nc(C(=O)O)c(-c4ccc(O)c(O)c4)s3)CSC12)c1csc(N)n1 (stereo not shown) [Ex. 56, disodium 78-[2-(2-aminothiazol-4-yl)-2-proparqyloxyiminoacetamido]-3-[4-carboxylate-5-(3,4-dihydroxyphenyl)thiazol-2-yl]thiomethyl-3-cephem-4-carboxylate]	0.025 µg/mL	0.0125 µg/mL	0.2 µg/mL	0.78 µg/mL	3.12 µg/mL	0.78 µg/mL	12.5 µg/mL	0.1 µg/mL	< 0.006 µg/mL	0.05 µg/mL	< 0.006 µg/mL	0.05 µg/mL	6.25 µg/mL	0.05 µg/mL	6.25 µg/mL	–	100 µg/mL	3.12 µg/mL	< 0.006 µg/mL	–	MIC ([16]; read-out: Minimum Inhibitory Concentration (MIC), Ps. aeruginosa AK 109, 10^6 CFU/ml): 6.25 µg/mL; MIC [20, 36]: 0.2 µg/mL
